# Test results reported in ChEMBL document CHEMBL3351802, “Rupestonic acids B-G, NO inhibitory sesquiterpenoids from Artemisia rupestris” (Bioorg Med Chem Lett, 2014).
# Key:
# [1] = Cytotoxicity against LPS-stimulated […] cells assessed as cell viability at 40 uM by MTT assay; assay type: cell-based, BV-2; details: read-out: Activity
# BV-2 = assay: Inhibition of LPS-stimulated NO production in […] cells after 24 hrs by Griess assay; assay type: functional, cell-based; details: Mus musculus, BV-2, 24 h
smiles,measurement,setting,value
C=C(C(=O)O)[C@@H]1CC[C@H](C)[C@@H]2CC[C@](C)(O)[C@@]2(O)C1,viability at 40 µM,[1],78.8%
same,IC50,BV-2,2.6 µM
O=c1c(O)c(-c2ccc(O)c(O)c2)oc2cc(O)cc(O)c12 [QUERCETIN],viability at 40 µM,[1],97%
same,IC50,BV-2,4.3 µM
C=C(C(=O)O)[C@@H]1CC[C@H](C)C2=C(C1)[C@](C)(O)CC2=O,viability at 40 µM,[1],77%
same,IC50,BV-2,24.7 µM
C=C(C(=O)O)[C@@H]1CC[C@H](C)[C@H](CCC(C)=O)C(=O)C1,viability at 40 µM,[1],76.6%
same,IC50,BV-2,2.2 µM
CC1=C2C[C@H](C(=O)O)CC[C@H](C)[C@@H]2CC1=O,viability at 40 µM,[1],77.6%
same,IC50,BV-2,8.9 µM
C=C(C(=O)O)[C@@H]1CC[C@H](C)[C@H]2C(=O)C=C(C)[C@]2(O)C1,viability at 40 µM,[1],76.1%
same,IC50,BV-2,20.4 µM
C=C(C(=O)O)[C@@H]1CC[C@H](C)[C@@]2(O)CC(=O)C(C)=C2C1,viability at 40 µM,[1],83.4%
same,IC50,BV-2,28.9 µM
